Our source for the pest or weed control values is US9265253B2, “Use of macrocyclic picolinamides as fungicides” (DOW AGROSCIENCES LLC, priority 2013, dated 2016).

Common to all, as to format: in vivo
In one assay the test system is Leptosphaeria nodorum. Briefly: Wheat Glume Blotch (LEPTNO) disease control. Particulars: Parastagonospora nodorum, topical, 24 h, 1 Day Protectant, read-out: Disease Control LEPTNO 1 DP. As for the experimental part: Technical grades of materials were dissolved in acetone, which were then mixed with nine volumes of water containing 110 ppm Triton X-100. The fungicide solutions were applied onto wheat seedlings using an automated booth sprayer to run-off. All sprayed plants were allowed to air dry prior to further handling. All fungicides were evaluated using the aforementioned method for their activity vs. all target diseases. Wheat leaf blotch and brown rust activity were also evaluated using track spray applications, in which case the fungicides were formulated as EC formulations, containing 0.1% Trycol 5941 in the spray solutions. Wheat plants (variety Yuma) were grown from seed in a greenhouse in 50% mineral soil/50% soil-less Metro mix until the first leaf was fully emerged, with 7-10 seedlings per pot. These plants were inoculated with an aqueous spore suspension of Septoria tritici either prior to or after fungicide treatments. After inoculation the plants were kept in 100% relative humidity (one day in a dark dew chamber followed by two to three days in a lighted dew chamber at 20° C.) to permit spores to germinate and infect the leaf. The plants were then transferred to a greenhouse set at 20° C. for disease to develop. When disease symptoms were fully expressed on the 1st leaves of untreated plants, infection levels were assessed on a scale of 0 to 100 percent disease severity. Percent disease control was calculated using the ratio of disease severity on treated plants relative to untreated plants. Wheat plants (variety Yuma) were grown from seed in a greenhouse in 50% mineral soil/50% soil-less Metro mix until the first leaf was fully emerged, with 7-10 seedlings per pot. These plants were inoculated with an aqueous spore suspension of Leptosphaeria nodorum 24 hr after fungicide treatments. After inoculation the plants were kept in 100% relative humidity (one day in a dark dew chamber followed by two days in a lighted dew chamber at 20° C.) to permit spores to germinate and infect the leaf. The plants were then transferred to a greenhouse set at 20° C. for disease to develop. Fungicide formulation, application and disease assessment followed the procedures as described in the Example A.

The next assay relates to Alternaria solani. Briefly: Tomato Early Blight (ALTESO) disease control. The following applies: Alternaria solani, topical, 24 h, 1 Day Protectant, read-out: Disease Control ALTESO 1 DP. As to the method: Technical grades of materials were dissolved in acetone, which were then mixed with nine volumes of water containing 110 ppm Triton X-100. The fungicide solutions were applied onto wheat seedlings using an automated booth sprayer to run-off. All sprayed plants were allowed to air dry prior to further handling. All fungicides were evaluated using the aforementioned method for their activity vs. all target diseases. Wheat leaf blotch and brown rust activity were also evaluated using track spray applications, in which case the fungicides were formulated as EC formulations, containing 0.1% Trycol 5941 in the spray solutions. Wheat plants (variety Yuma) were grown from seed in a greenhouse in 50% mineral soil/50% soil-less Metro mix until the first leaf was fully emerged, with 7-10 seedlings per pot. These plants were inoculated with an aqueous spore suspension of Septoria tritici either prior to or after fungicide treatments. After inoculation the plants were kept in 100% relative humidity (one day in a dark dew chamber followed by two to three days in a lighted dew chamber at 20° C.) to permit spores to germinate and infect the leaf. The plants were then transferred to a greenhouse set at 20° C. for disease to develop. When disease symptoms were fully expressed on the 1st leaves of untreated plants, infection levels were assessed on a scale of 0 to 100 percent disease severity. Percent disease control was calculated using the ratio of disease severity on treated plants relative to untreated plants. Tomato plants (variety Outdoor girl) were propagated in soil-less Metro mix, with each pot having one plant, and used when 12 to 14 days old. Test plants were inoculated with an aqueous spore suspension of Alternaria solani 24 hr after fungicide treatments. After inoculation the plants were kept in 100% relative humidity (one day in a dark dew chamber followed by two to three days in a lighted dew chamber at 20° C.) to permit spores to germinate and infect the leaf. The plants were then transferred to a growth room at 22° C. for disease to develop. Fungicide formulation, application and disease assessment on the sprayed leaves followed the procedures as described in the Example A.

Assay [1] has as its system Glomerella lagenarium; Anamorph: Colletotrichum lagenarium. The assay can be described thus: Cucumber Anthracnose (COLLLA) disease control. The following applies: Colletotrichum orbiculare, topical, 24 h, 1 Day Protectant, read-out: Disease Control COLLLA 1 DP. As for the experimental part: Technical grades of materials were dissolved in acetone, which were then mixed with nine volumes of water containing 110 ppm Triton X-100. The fungicide solutions were applied onto wheat seedlings using an automated booth sprayer to run-off. All sprayed plants were allowed to air dry prior to further handling. All fungicides were evaluated using the aforementioned method for their activity vs. all target diseases. Wheat leaf blotch and brown rust activity were also evaluated using track spray applications, in which case the fungicides were formulated as EC formulations, containing 0.1% Trycol 5941 in the spray solutions. Wheat plants (variety Yuma) were grown from seed in a greenhouse in 50% mineral soil/50% soil-less Metro mix until the first leaf was fully emerged, with 7-10 seedlings per pot. These plants were inoculated with an aqueous spore suspension of Septoria tritici either prior to or after fungicide treatments. After inoculation the plants were kept in 100% relative humidity (one day in a dark dew chamber followed by two to three days in a lighted dew chamber at 20° C.) to permit spores to germinate and infect the leaf. The plants were then transferred to a greenhouse set at 20° C. for disease to develop. When disease symptoms were fully expressed on the 1st leaves of untreated plants, infection levels were assessed on a scale of 0 to 100 percent disease severity. Percent disease control was calculated using the ratio of disease severity on treated plants relative to untreated plants. Cucumber seedlings (variety Bush Pickle) were propagated in soil-less Metro mix, with each pot having one plant, and used in the test when 12 to 14 days old. Test plants were inoculated with an aqueous spore suspension of Colletotrichum lagenarium 24 hr after fungicide treatments. After inoculation the plants were kept in a dew room at 22° C. with 100% relative humidity for 48 hr to permit spores to germinate and infect the leaf. The plants were then transferred to a growth room set at 22° C. for disease to develop. Fungicide formulation, application and disease assessment on the sprayed leaves followed the procedures as described in the Example A.

As to `C=C[C@H]1CCC[C@H](NC(=O)c2nccc(OC)c2OCOC(C)=O)C(=O)O[C@@H](C)[C@@H]1Oc1ccccc1` [Compound F146], the pest or weed control at 100 ppm (in the assay on Leptosphaeria nodorum; in the assay with Alternaria solani; in assay [1]) was 80 to 100% each time. As for `COc1ccnc(C(=O)N[C@H]2CCC[C@H](Cc3ccc(F)cc3)[C@@H](OCC3CC3)[C@H](C)OC2=O)c1OCOC(C)=O` [Compound F96], the pest or weed control at 100 ppm (in the assay with Leptosphaeria nodorum; with Alternaria solani; in assay [1]) was 80 to 100% in each case. Take `COc1ccnc(C(=O)N[C@H]2CCC[C@H](Cc3ccc(F)cc3F)[C@@H](OC(=O)c3ccco3)[C@H](C)OC2=O)c1OCOC(C)=O` [Compound F144]: the pest or weed control at 100 ppm (in the assay with Leptosphaeria nodorum; in the assay on Alternaria solani; in assay [1]) was 80 to 100% each time. On to `CCCO[C@@H]1[C@@H](Cc2ccccc2)CCC[C@H](NC(=O)c2nccc(OC)c2OC(=O)CCOC)C(=O)O[C@H]1C` [Compound F198], for which the pest or weed control at 100 ppm (in the assay on Leptosphaeria nodorum; in the assay with Alternaria solani; in assay [1]) was 80 to 100% each time. Take `COc1ccnc(C(=O)N[C@H]2CCC[C@H](Cc3ccccc3)[C@@H](OCC(C)C)[C@H](C)OC2=O)c1OC(C)=O` [Compound F70]: the figures for the pest or weed control at 100 ppm (with Leptosphaeria nodorum; with Alternaria solani; in assay [1]) were 80 to 100%, 0 to 80% and 80 to 100%, respectively. `COc1ccnc(C(=O)N[C@H]2CCC[C@H](Cc3ccc(F)cc3F)[C@@H](OCC(C)C)[C@H](C)OC2=O)c1OCOC(C)=O` [Compound F145]: the pest or weed control at 100 ppm (in the assay on Leptosphaeria nodorum; with Alternaria solani; in assay [1]) was 80 to 100% throughout.

As for `COc1ccnc(C(=O)N[C@H]2CCC[C@H](CCBr)[C@@H](Oc3ccccc3)[C@H](C)OC2=O)c1OC(C)=O` [Compound F80], the pest or weed control at 100 ppm in the assay on Alternaria solani lay within 0 to 80%; in assay [1], 80 to 100%. In the case of `CCOCC(=O)OCOc1c(OC)ccnc1C(=O)N[C@H]1CCC[C@H](CCOC)[C@@H](Oc2ccccc2)[C@H](C)OC1=O` [Compound F183], the pest or weed control at 100 ppm with Leptosphaeria nodorum fell in the range of 80 to 100%; in the assay with Alternaria solani, 0 to 80%; in assay [1], 80 to 100%. On to `COc1ccnc(C(=O)N[C@H]2CCC[C@H](Cc3ccc(F)cc3)[C@@H](OCC(C)C)[C@H](C)OC2=O)c1OCOC(C)=O` [Compound F102], for which the pest or weed control at 100 ppm in assay [1] was 80 to 100%. For the compound `CCOCC(=O)OCOc1c(OC)ccnc1C(=O)N[C@H]1CCC[C@H](CC2CCCCC2)[C@@H](OCC(C)C)[C@H](C)OC1=O` [Compound F175], the pest or weed control at 100 ppm in the assay on Alternaria solani lay in the range of 80 to 100%. In the case of `CCCO[C@@H]1[C@@H](Cc2ccc(OC)cc2)CCC[C@H](NC(=O)c2nccc(OC)c2OCOC(C)=O)C(=O)O[C@H]1C` [Compound F119], the pest or weed control at 100 ppm with Alternaria solani fell in the range of 0 to 80%; in assay [1] it was 80 to 100%. As for `CCCO[C@@H]1[C@@H](Cc2ccc(F)cc2)CCC[C@H](NC(=O)c2nccc(OC)c2OCOC(C)=O)C(=O)O[C@H]1C` [Compound F101], the pest or weed control at 100 ppm (in the assay with Alternaria solani; in assay [1]) was 80 to 100% throughout. With `COc1ccnc(C(=O)N[C@H]2CCC[C@H](CC(F)F)[C@@H](Oc3ccccc3)[C@H](C)OC2=O)c1OCOC(C)=O` [Compound F138], the pest or weed control at 100 ppm in assay [1] was 80 to 100%.

For the compound `CCOCC(=O)OCOc1c(OC)ccnc1C(=O)N[C@H]1CCC[C@H](Cc2ccc(F)cc2)[C@@H](OCC(C)C)[C@H](C)OC1=O` [Compound F168], the pest or weed control at 100 ppm in assay [1] lay within 80 to 100%.

Regarding `COc1ccnc(C(=O)N[C@H]2CCC[C@H](Cc3ccccc3)[C@@H](Oc3ccccc3)[C@H](C)OC2=O)c1OCOC(C)=O` [Compound F108], the pest or weed control at 100 ppm (with Leptosphaeria nodorum; in assay [1]) was 80 to 100% in each case. As to `COc1ccnc(C(=O)N[C@H]2CCC[C@H](CC(F)F)[C@@H](Oc3ccccc3)[C@H](C)OC2=O)c1OC(C)=O` [Compound F82], the pest or weed control at 100 ppm in assay [1] was in the range of 80 to 100%.

In the case of `COc1ccnc(C(=O)N[C@H]2CCC[C@H](Cc3ccccc3)[C@@H](OCC3CC3)[C@H](C)OC2=O)c1OCOC(=O)C(C)C` [Compound F152], the pest or weed control at 100 ppm (in the assay with Alternaria solani; in assay [1]) was 80 to 100% in each case. Take `CC[C@H]1CCC[C@H](NC(=O)c2nccc(OC)c2OC(C)=O)C(=O)O[C@@H](C)[C@@H]1Oc1ccccc1` [Compound F81]: the pest or weed control at 100 ppm fell in the range of 0 to 80% with Alternaria solani and 80 to 100% in assay [1].

In the case of `COc1ccnc(C(=O)N[C@H]2CCC[C@H](Cc3ccccc3)[C@@H](OCC3CC3)[C@H](C)OC2=O)c1OCOC(C)=O` [Compound F107], the pest or weed control at 100 ppm (with Alternaria solani; in assay [1]) was 80 to 100% throughout.

As to `COc1ccnc(C(=O)N[C@H]2CCC[C@H](CC3CCCCC3)[C@@H](OCC(C)C)[C@H](C)OC2=O)c1OCOC(C)=O` [Compound F113], the pest or weed control at 100 ppm in the assay on Alternaria solani lay in the range of 80 to 100%. Turning to `CCCO[C@@H]1[C@@H](Cc2ccc(F)cc2)CCC[C@H](NC(=O)c2nccc(OC)c2OCOC(=O)COCC)C(=O)O[C@H]1C` [Compound F167], the pest or weed control at 100 ppm (in the assay with Alternaria solani; in assay [1]) was 80 to 100% throughout. Regarding `COc1ccc(C[C@H]2CCC[C@H](NC(=O)c3nccc(OC)c3OCOC(C)=O)C(=O)O[C@@H](C)[C@@H]2Oc2ccccc2)cc1` [Compound F114], the pest or weed control at 100 ppm in assay [1] lay in the range of 80 to 100%.

For `COc1ccnc(C(=O)N[C@H]2CCC[C@H](Cc3ccc(C)cc3)[C@@H](OCC(C)C)[C@H](C)OC2=O)c1OCOC(C)=O` [Compound F126], the pest or weed control at 100 ppm in the assay with Alternaria solani was in the range of 0 to 80%; in assay [1] it was 80 to 100%. For the compound `COc1ccc(C[C@H]2CCC[C@H](NC(=O)c3nccc(OC)c3OCOC(C)=O)C(=O)O[C@@H](C)[C@@H]2OCC(C)C)cc1` [Compound F118], the pest or weed control at 100 ppm was 0 to 80% with Alternaria solani and 80 to 100% in assay [1].

With `CCOCC(=O)OCOc1c(OC)ccnc1C(=O)N[C@H]1CCC[C@H](Cc2ccccc2)[C@@H](OCC2CC2)[C@H](C)OC1=O` [Compound F173], the pest or weed control at 100 ppm (in the assay on Alternaria solani; in assay [1]) was 80 to 100% in each case. On to `COc1ccnc(C(=O)N[C@H]2CCC[C@H](Cc3ccccc3)[C@@H](OC3CCCC3)[C@H](C)OC2=O)c1OCOC(C)=O` [Compound F110], for which the pest or weed control at 100 ppm with Leptosphaeria nodorum lay within 80 to 100%.
